For two molecules, Activity results are on record in ChEMBL document CHEMBL3044675, “Synthesis and Antifungal Activities of Some Novel Pyrimidine Derivatives” (2011).

Each structure is given as a SMILES string.

Holding throughout (assay type): functional
One assay concerns Fusarium graminearum. The assay is described as follows: Antifungal activity against Fusarium graminearum at 50 ug/ml by poisoned food technique.
The next assay concerns Alternaria mali. The assay can be described thus: Antifungal activity against Alternaria mali at 50 ug/ml by poisoned food technique.
The subject of the next assay is Thanatephorus cucumeris. The assay can be described thus: Antifungal activity against Thanatephorus cucumeris at 50 ug/ml by poisoned food technique.
A further assay concerns Ceratobasidium cereale. The assay is described as follows: Antifungal activity against Ceratobasidium cereale at 50 ug/ml by poisoned food technique.
The test system of another assay is Alternaria solani. The assay can be described thus: Antifungal activity against Alternaria solani at 50 ug/ml by poisoned food technique.
The test system of a further assay is Bipolaris maydis. The assay is described as follows: Antifungal activity against Cochliobolus heterostrophus at 50 ug/ml by poisoned food technique.
For a further assay, the system named is Phytophthora infestans. The assay can be described thus: Antifungal activity against Phytophthora infestans at 50 ug/ml by poisoned food technique.
A further assay relates to Sclerotinia sclerotiorum. The assay can be described thus: Antifungal activity against Sclerotinia sclerotiorum at 50 ug/ml by poisoned food technique.
Another assay relates to Fusarium fujikuroi. The assay is described as follows: Antifungal activity against Fusarium fujikuroi at 50 ug/ml by poisoned food technique.
In the next assay the test system is Rhizoctonia solani. The assay can be described thus: Antifungal activity against Rhizoctonia solani at 50 ug/ml by poisoned food technique.
Another assay relates to Alternaria kikuchiana. The assay can be described thus: Antifungal activity against Alternaria kikuchiana at 50 ug/ml by poisoned food technique.
A further assay has as its system Mycosphaerella arachidis. The assay can be described thus: Antifungal activity against Mycosphaerella arachidis at 50 ug/ml by poisoned food technique.
For the next assay, the system named is Macrophoma. The assay is described as follows: Antifungal activity against Macrophoma kuwatsukai at 50 ug/ml by poisoned food technique.
For another assay, the system named is Botrytis cinerea. The assay is described as follows: Antifungal activity against Botryotinia fuckeliana at 50 ug/ml by poisoned food technique.

Consider `COc1ccc(C(=CC(=O)N2CCOCC2)c2ccc(Cl)cc2)cc1OC` [DIMETHOMORPH], for which the Activity worked out at 0% in the assay on Fusarium graminearum; 7.1% in the assay with Alternaria mali; 23.5% in the assay on Thanatephorus cucumeris; 40% in the assay on Ceratobasidium cereale; 5.9% in the assay on Alternaria solani; 17.4% with Bipolaris maydis. Besides, the Activity with Phytophthora infestans is listed as 9.1%; with Sclerotinia sclerotiorum it was 20%; with Fusarium fujikuroi, 20%; with Rhizoctonia solani it was 68.3%; in the assay on Alternaria kikuchiana, 22.7%; in the assay on Mycosphaerella arachidis, 0%. Also, the Activity turned out to be 6.3% with Macrophoma and 18.5% in the assay on Botrytis cinerea.

Regarding `Cc1cc(OC(=O)c2ccc(Cl)cc2)nc(C(C)C)n1`, the Activity is recorded as 40.7% in the assay with Fusarium graminearum; 21.4% in the assay with Alternaria mali; 0% in the assay with Thanatephorus cucumeris; 0% in the assay with Ceratobasidium cereale; 0% in the assay with Alternaria solani; 26.1% in the assay on Bipolaris maydis. For the same molecule, the Activity with Phytophthora infestans came out at 13.6%; in the assay on Sclerotinia sclerotiorum it was 60%; in the assay on Fusarium fujikuroi, 53.3%; in the assay on Rhizoctonia solani it was 61.9%; with Alternaria kikuchiana, 22.7%; in the assay with Mycosphaerella arachidis it was 6.7%. Besides, the Activity in the assay with Macrophoma was determined as 37.5%; with Botrytis cinerea, 33.3%.
